Measured values as given in patent US8716303B2, “N-(hetero)aryl-pyrrolidine derivatives of pyrazol-4-yl-pyrrolo[2,3-d]pyrimidines and pyrrol-3-yl-pyrrolo[2,3-d]pyrimidines as janus kinase inhibitors” (Incyte Corporation, priority 2009, dated 2014).
Where a name gives a salt, the structure may show the parent alone.

Key:
[1] = biological target: T1, human JAK1 (a.a. 837-1142) (Homo sapiens, UniProt P23458); assay: In vitro JAK kinase assay (HTRF, phosphorylation of a biotinylated peptide), JAK1; assay type: biochemical
T1 construct: human JAK1 (a.a. 837-1142); His tag (N); made in house; host or cells: insect cells (baculovirus)
T1 sequence (P23458 849-1154): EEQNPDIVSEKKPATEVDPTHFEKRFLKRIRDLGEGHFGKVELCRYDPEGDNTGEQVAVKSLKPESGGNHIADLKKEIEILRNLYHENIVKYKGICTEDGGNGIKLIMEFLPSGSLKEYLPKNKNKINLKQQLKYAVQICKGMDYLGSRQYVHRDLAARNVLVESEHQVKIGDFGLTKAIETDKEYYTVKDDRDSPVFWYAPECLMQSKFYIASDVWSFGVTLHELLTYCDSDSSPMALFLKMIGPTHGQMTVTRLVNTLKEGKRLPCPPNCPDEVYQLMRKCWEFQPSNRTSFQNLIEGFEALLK
Procedure, shortened: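 His-tagged catalytic domains (JAK1 a.a. 837-1142, JAK2 a.a. 828-1132) from insect cells phosphorylate 500 nM biotinylated peptide in 50 mM Tris pH 7.8, 100 mM NaCl, 5 mM DTT; ATP at Km (90 μM JAK1, 30 μM JAK2) or 1 mM, as indicated. 1 h at RT; EDTA stop, HTRF readout; IC50s.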

Jak2 (a.a. 828-1132) = biological target: T2, Jak2 (a.a. 828-1132) (Homo sapiens, UniProt O60674); assay: In vitro JAK kinase assay (HTRF, phosphorylation of a biotinylated peptide), JAK2, reported as JAK2/JAK1 ratio; assay type: biochemical
T2 construct: Jak2 (a.a. 828-1132); His tag (N); made in house; host or cells: insect cells (baculovirus)
T2 sequence (O60674 828-1132): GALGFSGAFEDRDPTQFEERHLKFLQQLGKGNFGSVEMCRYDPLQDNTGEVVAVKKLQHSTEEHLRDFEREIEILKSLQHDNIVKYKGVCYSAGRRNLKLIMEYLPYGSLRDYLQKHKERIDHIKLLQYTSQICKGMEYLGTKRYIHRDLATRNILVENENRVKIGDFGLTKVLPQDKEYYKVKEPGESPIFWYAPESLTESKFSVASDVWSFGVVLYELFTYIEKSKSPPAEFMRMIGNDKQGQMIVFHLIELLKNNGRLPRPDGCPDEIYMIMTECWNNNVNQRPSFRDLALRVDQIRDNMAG

[2] = Assay Conditions Km (ATP 90 μM for Jak1)
[3] = Assay Conditions Km (ATP 90 μM for Jak1, 30 μM for Jak2)

Compound | IC50 [1, 2] | JAK2/JAK1 IC50 ratio (Jak2 (a.a. 828-1132); [3]) | IC50 ([1]; Assay Conditions 1 mM ATP) | JAK2/JAK1 IC50 ratio (Jak2 (a.a. 828-1132); Assay Conditions 1 mM ATP)
N#CCC(C1CCN(c2ncc3cccc(Cl)c3n2)C1)n1cc(-c2ncnc3[nH]ccc23)cn1 (centres unmarked) [Example 44, 3-[1-(8-chloroquinazolin-2-yl)pyrrolidin-3-yl]-3-[4-(7H-pyrrolo[2,3-d]pyrimidin-4-yl)-1H-pyrazol-1-yl]propanenitrile trifluoroacetate salt] | < 50 nM | 3 | – | –
CCc1cnc(N2CC[C@H]([C@H](CC#N)n3cc(-c4ncnc5[nH]ccc45)cn3)C2)c(C#N)n1 [Example 144, 3-((3S)-3-{(1S)-2-cyano-1-[4-(7H-pyrrolo[2,3-d]pyrimidin-4-yl)-1H-pyrazol-1-yl]ethyl}pyrrolidin-1-yl)-6-ethylpyrazine-2-carbonitrile trifluoroacetate] | – | – | < 50 nM | >6.9
N#Cc1csc(N2CC[C@H](C(CF)n3cc(-c4ncnc5[nH]ccc45)cn3)C2)c1C#N (stereo partly drawn) [Example 80, 2-((3S)-3-{2-fluoro-1-[4-(7H-pyrrolo[2,3-d]pyrimidin-4-yl)-1H-pyrazol-1-yl]ethyl}pyrrolidin-1-yl)thiophene-3,4-dicarbonitrile] | – | – | < 50 nM | 12.1
N#Cc1ncsc1N1CC[C@H](C(CF)n2cc(-c3ncnc4[nH]ccc34)cn2)C1 (stereo partly drawn) [Example 126, 5-((3S)-3-{2-fluoro-1-[4-(7H-pyrrolo[2,3-d]pyrimidin-4-yl)-1H-pyrazol-1-yl]ethyl}pyrrolidin-1-yl)-1,3-thiazole-4-carbonitrile trifluoroacetate] | – | – | < 50 nM | 5.9
N#CCC(n1cc(-c2ncnc3[nH]ccc23)cn1)C1(F)CCN(c2nc3cccnc3o2)C1 (single isomer, unassigned) [31, Step 4b, enantiomer 1] | – | – | 100 to 500 nM | >2.5
Cn1cc(Cl)nc(N2CCC(C(CC#N)n3cc(-c4ncnc5[nH]ccc45)cn3)C2)c1=O (racemic) [Example 36, ±3-[1-(6-chloro-4-methyl-3-oxo-3,4-dihydropyrazin-2-yl)pyrrolidin-3-yl]-3-[4-(7H-pyrrolo[2,3-d]pyrimidin-4-yl)-1H-pyrazol-1-yl]propanenitrile trifluoroacetate] | – | – | 50 to 100 nM | 6
N#CC[C@@H]([C@H]1CCN(c2nc(Cl)c(CO)cc2F)C1)n1cc(-c2ncnc3[nH]ccc23)cn1 [Example 90, (3S)-3-{(3S)-1-[6-chloro-3-fluoro-5-(hydroxymethyl)pyridin-2-yl]pyrrolidin-3-yl}-3-[4-(7H-pyrrolo[2,3-d]pyrimidin-4-yl)-1H-pyrazol-1-yl]propanenitrile trifluoroacetate] | – | – | < 50 nM | 4.3
N#CC[C@@H]([C@H]1CCN(c2ncsc2C#N)C1)n1cc(-c2ncnc3[nH]ccc23)cn1 [Example 82, 4-(3-{2-cyano-1-[4-(7H-pyrrolo[2,3-d]pyrimidin-4-yl)-1H-pyrazol-1-yl]ethyl}pyrrolidin-1-yl)-1,3-thiazole-5-carbonitrile] | – | – | < 50 nM | 6.7
CC(F)c1ccnc(N2CC[C@H]([C@H](CC#N)n3cc(-c4ncnc5[nH]ccc45)cn3)C2)c1C#N (stereo partly drawn) [Example 136, 2-((3S)-3-{(1S)-2-cyano-1-[4-(7H-pyrrolo[2,3-d]pyrimidin-4-yl)-1H-pyrazol-1-yl]ethyl}pyrrolidin-1-yl)-4-(1-fluoroethyl)nicotinonitrile trifluoroacetate] | – | – | < 50 nM | >5
N#CCC(C1CCN(c2nc3cccnc3o2)C1)n1ccc(-c2ncnc3[nH]ccc23)c1 (single isomer, unassigned) [Example 33, 3-(1-[1,3]oxazolo[5,4-b]pyridin-2-ylpyrrolidin-3-yl)-3-[3-(7H-pyrrolo[2,3-d]pyrimidin-4-yl)-1H-pyrrol-1-yl]propanenitrile phosphate] | – | – | < 50 nM | 34
N#CCC(C1CCN(c2nc3cccnc3o2)C1)n1cc(-c2ncnc3[nH]ccc23)cn1 (single isomer, unassigned) [Example 13b, 3-(1-[1,3]oxazolo[5,4-b]pyridin-2-ylpyrrolidin-3-yl)-3-[4-(7H-pyrrolo[2,3-d]pyrimidin-4-yl)-1H-pyrazol-1-yl]propanenitrile] | < 50 nM | 2.1 | – | –
N#CCC(C1CCN(c2nc3cc(F)ccc3o2)C1)n1cc(-c2ncnc3[nH]ccc23)cn1 (single isomer, unassigned) [Example 19, 3-[1-(5-fluoro-1,3-benzoxazol-2-yl)pyrrolidin-3-yl]-3-[4-(7H-pyrrolo[2,3-d]pyrimidin-4-yl)-1H-pyrazol-1-yl]propanenitrile] | – | – | < 50 nM | 5.3
N#CCC(C1CCN(c2nc3cccc(Br)c3o2)C1)n1cc(-c2ncnc3[nH]ccc23)cn1.O=C(O)C(F)(F)F (single isomer, unassigned) [Example 159, 3-[1-(7-bromo-1,3-benzoxazol-2-yl)pyrrolidin-3-yl]-3-[4-(7H-pyrrolo[2,3-d]pyrimidin-4-yl)-1H-pyrazol-1-yl]propanenitrile trifluoracetate] | – | – | < 50 nM | 12.9
FCC([C@H]1CCN(c2nc3cccnc3o2)C1)n1cc(-c2ncnc3[nH]ccc23)cn1 (stereo partly drawn) [70 (3S- enantiomer), 2-((3S)-3-{2-fluoro-1-[4-(7H-pyrrolo[2,3-d]pyrimidin-4-yl)-1H-pyrazol-1-yl]ethyl}pyrrolidin-1-yl)[1,3]oxazolo[5,4-b]pyridine phosphoric acid salt] | – | – | < 50 nM | 15
N#CCC(C1CCN(c2ccnc(Cl)n2)C1)n1cc(-c2ncnc3[nH]ccc23)cn1 (single isomer, unassigned) [3, Step 2a] | < 50 nM | 2.3 | – | –
COCc1c(F)cnc(N2CC[C@H]([C@H](CC#N)n3cc(-c4ncnc5[nH]ccc45)cn3)C2)c1F [Example 101, (3S)-3-{(3S)-1-[3,5-difluoro-4-(methoxymethyl)pyridin-2-yl]pyrrolidin-3-yl}-3-[4-(7H-pyrrolo[2,3-d]pyrimidin-4-yl)-1H-pyrazol-1-yl]propanenitrile trifluoroacetate] | – | – | < 50 nM | 4.0
CNC(=O)c1cc(N2CCC(C(CC#N)n3cc(-c4ncnc5[nH]ccc45)cn3)C2)ccn1 (single isomer, unassigned) [Example 152, 4-(3-{2-cyano-1-[4-(7H-pyrrolo[2,3-d]pyrimidin-4-yl)-1H-pyrazol-1-yl]ethyl}pyrrolidin-1-yl)-N-methylpyridine-2-carboxamide] | – | – | < 50 nM | 6.7
C#Cc1cnc(N2CC[C@H]([C@H](CC#N)n3cc(-c4ncnc5[nH]ccc45)cn3)C2)c(C#N)n1 [Example 143, 3-((3S)-3-{(1S)-2-cyano-1-[4-(7H-pyrrolo[2,3-d]pyrimidin-4-yl)-1H-pyrazol-1-yl]ethyl}pyrrolidin-1-yl)-6-ethynylpyrazine-2-carbonitrile trifluoroacetate] | – | – | < 50 nM | >4.5
N#CCC(C1CCN(c2nc3cc(F)cc(F)c3o2)C1)n1cc(-c2ncnc3[nH]ccc23)cn1 (single isomer, unassigned) [Example 22, 3-[1-(5,7-difluoro-1,3-benzoxazol-2-yl)pyrrolidin-3-yl]-3-[4-(7H-pyrrolo[2,3-d]pyrimidin-4-yl)-1H-pyrazol-1-yl]propanenitrile] | – | – | < 50 nM | >7
N#CCC(C1CCN(c2nc3cccnc3o2)C1)n1ccc(-c2ncnc3[nH]ccc23)c1 (single isomer, unassigned) [32, Step 2a, enantiomer 2] | < 50 nM | 5.7 | – | –
N#CC[C@@H]([C@H]1CCN(c2ccc(C#N)c(Cl)n2)C1)n1cc(-c2ncnc3[nH]ccc23)cn1 [Example 69, 2-chloro-6-((3S)-3-{(1S)-2-cyano-1-[4-(7H-pyrrolo[2,3-d]pyrimidin-4-yl)-1H-pyrazol-1-yl]ethyl}pyrrolidin-1-yl)nicotinonitrile trifluoroacetate salt] | – | – | < 50 nM | 6.5
N#CCC(C1CCN(c2cccc(Cl)[n+]2[O-])C1)n1cc(-c2ncnc3[nH]ccc23)cn1 (single isomer, unassigned) [Example 45, 3-[1-(6-chloro-1-oxidopyridin-2-yl)pyrrolidin-3-yl]-3-[4-(7H-pyrrolo[2,3-d]pyrimidin-4-yl)-1H-pyrazol-1-yl]propanenitrile] | < 50 nM | 7.4 | – | –
CS(=O)(=O)c1cccc(N2CCC(C(CC#N)n3cc(-c4ncnc5[nH]ccc45)cn3)C2)c1C#N (racemic) [Example 41, ±2-(3-{2-cyano-1-[4-(7H-pyrrolo[2,3-d]pyrimidin-4-yl)-1H-pyrazol-1-yl]ethyl}pyrrolidin-1-yl)-6-(methylsulfonyl)benzonitrile] | – | – | < 50 nM | 11
N#CCC(C1CCN(c2ncc3c(c2C#N)SCC3)C1)n1cc(-c2ncnc3[nH]ccc23)cn1 (single isomer, unassigned) [Example 173, 6-(3-{2-cyano-1-[4-(7H-pyrrolo[2,3-d]pyrimidin-4-yl)-1H-pyrazol-1-yl]ethyl}pyrrolidin-1-yl)-2,3-dihydrothieno[3,2-c]pyridine-7-carbonitrile] | – | – | < 50 nM | >27.3
N#CCC(C1CCN(c2nc3cccc(F)c3o2)C1)n1ccc(-c2ncnc3[nH]ccc23)c1 (single isomer, unassigned) [Example 158-1, 3-[1-(7-fluoro-1,3-benzoxazol-2-yl)pyrrolidin-3-yl]-3-[3-(7H-pyrrolo[2,3-d]pyrimidin-4-yl)-1H-pyrrol-1-yl]propanenitrile] | – | – | < 50 nM | 22.5
